According to a melting point compilation (Tetko et al.; mined from patent text by program, amines drawn as free bases though some values may be those of a salt):

With `CC(=O)Nc1nc2c(Oc3cc(-c4ccc(C(F)(F)F)cc4Br)ncn3)cccc2s1` the melting point was 260 °C.
For `CCOC(=O)C1=Cc2cc(Cl)c(C)c(Cl)c2OC1C(F)(F)F` (stereo unspecified), the melting point was 117 to 120 °C.
In the case of `ClCc1nnc2n1-c1ccccc1C(c1ccccc1Cl)=NC2`, the melting point is reported as 186 to 188 °C.
Compound `O=C(CN1CCNCC1C(=O)CCCCCNO)Nc1nc2ccccc2s1` (stereo unspecified) has a melting point of 150 to 152 °C.
For `CC(C)(C)OC(=O)N1CCc2c(n(CC(=O)Nc3ccccc3)c3ccc(Cl)c(Cl)c23)CC1`, the melting point was 208 to 210 °C.
With `CC(C)c1cccc(C(C)C)c1NS(=O)(=O)CC(=O)N(Cc1ccccc1)C(C)C` the melting point was 168 to 170 °C.
For `O=C(O)CCCC(=O)ON1C(=O)CCC1=O`, the melting point was 81 to 83 °C.
In the case of `CC1Cc2c(c3cccnc3n(-c3ccccc3)c2=O)O1` (stereo unspecified), the melting point is reported as 223 to 224 °C.
`O=C(O)Cc1ccc(SCCNC(=O)C2Cc3ccccc3N2S(=O)(=O)c2ccc(-c3cccc(C(F)(F)F)c3)cc2)c(Cl)c1` (stereo unspecified) gave a melting point of 70 °C.
Compound `CCCn1ncc2c(C3C(=O)Nc4ccc(C#N)cc43)ncnc21` (stereo unspecified) has a melting point of over 300 °C.
`CC1(C)OC(=O)C(c2cccc3nnsc23)C(=O)O1` showed a melting point of 170 to 172 °C.
For `CCOc1nsc(NC(=O)N(C)C)c1C(N)=O`, the melting point was 172 °C.
`CN(C)C=NC(C#N)=CN(C)C` gave a melting point of 78 to 81 °C.
`CC(C)c1nc2c([nH]1)c(=O)[nH]c(=O)n2Cc1ccncc1` gave a melting point of 305 to 307 °C.
In the case of `Brc1ccc(-c2nn[nH]n2)cc1`, the melting point is reported as 271 to 273 °C.
`COc1nc(=O)n(-c2ccc(Cl)cc2C)c(=O)[nH]1` showed a melting point of 193 to 195 °C.
`Cn1ccc(OC2c3cc(C#N)ccc3OC(C)(C)C2O)cc1=O` (stereo unspecified) showed a melting point of 202 to 203 °C.
For `CCOC(=O)[C@H](Cc1cccc(C#N)c1)NS(=O)(=O)c1ccc2c(c1)CN(C(C)C)CC2`, the melting point was 110 °C.
Work on `CC(=O)OCCC1CCN(CCCN2c3cc(OCc4ccccc4)ccc3Sc3c2cccc3S(=O)(=O)N(C)C)CC1` yielded a melting point of 94 to 96 °C.
Compound `FC(Br)C=Cc1ncn(C(c2ccccc2)(c2ccccc2)c2ccccc2)n1` (stereo unspecified) has a melting point of 145 to 146 °C.
In the case of `Cc1cc2c(-c3ccccc3)noc2c2c1OC(CO)C2` (stereo unspecified), the melting point is reported as 130 to 133 °C.
`COc1cc(C)cc(OC)c1C1=NC(NC(=O)c2cc3ccccc3[nH]2)C(=O)N(C)c2ccccc21` (single isomer, unassigned; (-)) gave a melting point of 135 °C.
For `Cn1nc(-c2ccc(S(C)(=O)=O)cc2)c2ccccc2c1=O`, the melting point was 218 to 220 °C.
Compound `O=C(O)CCCCc1ccc2ccccc2c1OCc1ccccc1` has a melting point of 70 to 77 °C.
Compound `CC1Cc2c(n(-c3ccc(Cl)c(Cl)c3)c3ncccc3c2=O)O1` (stereo unspecified) has a melting point of 218 to 220 °C.
`CC(C)(C)c1ccc(-c2ccc(C(=O)N=[N+]=[N-])s2)cc1` showed a melting point of 162 to 164 °C.
Work on `C=C(C)C(=O)OCCNC(=O)Nc1ccc(C(=O)O)c(O)c1` yielded a melting point of 208 to 210 °C.
With `O=C1C2CCCC2=Nc2ccccc2N1Cc1ccc(Cl)cc1` (stereo unspecified) the melting point was 155 to 157 °C.
In the case of `CC(=O)N1CCN(c2ccc(N)c(C)c2)CC1`, the melting point is reported as 126 to 129 °C.
`C[C@]1(COc2ccc(N3CCC(Nc4cc(Cl)cc(Cl)c4)CC3)cc2)Cn2cc([N+](=O)[O-])nc2O1` showed a melting point of 122 to 124 °C.
In the case of `COc1cc(Nc2c(C#N)cnc3cc(-c4ccc(C5OCCO5)o4)ccc23)c(Cl)cc1Cl`, the melting point is reported as 224 to 229 °C.
`CCc1cc([N+](=O)[O-])c(NC(CC)CC)c([N+](=O)[O-])c1C` gave a melting point of 51 to 53 °C.
With `O=C(O)CCCCCCCn1c(Cc2ccccc2)nc(-c2ccccc2)c1-c1ccccc1` the melting point was 148 to 149 °C.
`CCCCC(=O)N1CCC(c2nc(-c3ccc(-c4ccccc4)cc3)c[nH]2)CC1` showed a melting point of 215 to 216 °C.
`COc1ccc(-c2cc3cc(F)c(F)cc3[nH]2)cc1NCc1ccc([N+](=O)[O-])cc1` gave a melting point of 181 to 182 °C.
With `CN1CC(C(=O)c2cccn2Cc2ccc(F)cc2)=C(O)C1=O` the melting point was 150 to 151 °C.
In the case of `O=C1C=C(NNc2ccccc2)CCN1`, the melting point is reported as 165 to 168 °C.
Compound `O=S(c1ccc(C=Cc2nc(CCl)co2)cc1)C(F)(F)F` (stereo unspecified) has a melting point of 102 to 104 °C.
`CC1(C)CC(=O)c2c(-c3ccccc3)cn(-c3ccccn3)c2C1` gave a melting point of 160 to 162 °C.
In the case of `COC(=O)CN1CCCN(c2ccc(-c3ccc(C#N)cc3)cc2)C1=O`, the melting point is reported as 145 to 150 °C.
`CCCCc1nc(Cl)c(C(=O)OCC)n1Cc1ccc2oc(-c3ccccc3NS(=O)(=O)C(F)(F)F)c(Br)c2c1` gave a melting point of 158 to 159 °C.
`CCCCCCCCCCCc1cc(O)c(CCCCCC)c(=O)o1` showed a melting point of 83 to 84 °C.
`CN1C[C@H](CN2CCN(C(c3ccccc3)c3ccccc3)CC2)C[C@@H]2c3cccc4[nH]cc(c34)C[C@H]21` gave a melting point of 230 to 233 °C.
`CNC(=O)[C@H](NC(=O)c1ccc(F)cc1C(F)(F)F)[C@@H](CN)c1ccccc1` (racemic) showed a melting point of 188 °C.
Compound `CNC(=O)N(OC(=O)NC(C)(C)C)C(C)=O` has a melting point of 142 to 144 °C.
With `COc1ccc(N2CCOCC2)c2sc(-c3nc4c([nH]3)COCC4)nc12` the melting point was 203 to 204 °C.
`COC(=O)C(C)(C)CC(=O)CCc1ccc(Cl)cc1` showed a melting point of 52 to 54 °C.
For `CCOC(Nc1ccccc1)(OCC)c1ccnc(C(=O)c2ccc(Cl)cc2)c1`, the melting point was 98 to 99 °C.
Compound `COCc1c(C(=O)OC(C)C)ncc2[nH]c3c(c12)C(=O)CCC3` has a melting point of 243 to 245 °C.
With `O=S(=O)(Cl)c1ccc2cc(Oc3c(Cl)cc(C(F)(F)F)cc3Cl)ccc2c1` the melting point was 140 °C.
`Nc1c(Cl)c(Oc2ccccc2)nc(C(=O)O)c1Cl` gave a melting point of 158 to 160 °C.
`CC1(C)c2c(ccc3cc(C(N)=O)c(Cn4cncn4)cc23)OC1O` (stereo unspecified) showed a melting point of 223 to 225 °C.
For `Nc1cccc(Oc2ccc3c(c2)OCC(=O)N3)c1`, the melting point was 209 to 210 °C.
Compound `CCCCCCCCCCCCOc1ccc(CP(=O)(OC)OC)cc1` has a melting point of 30 to 31 °C.
In the case of `CCOc1cc2c(Nc3cc(OC)c(Cl)cc3Cl)c(C#N)cnc2cc1Br`, the melting point is reported as over 250 °C.
Work on `COc1cccc(CCN2C(=O)c3ccccc3C2(O)c2cccnc2)c1` (stereo unspecified) yielded a melting point of 97 °C.
For `O=C(c1ccccc1)c1cccc(NC(=O)C(Cl)CCl)c1` (stereo unspecified), the melting point was 92 °C.
In the case of `CNC(=O)c1ccc(-c2n[nH]c3c2Cc2ccccc2-3)cc1`, the melting point is reported as 182 to 188 °C.
Work on `COC(=O)c1cn(-c2c(Cl)cc(Cl)cc2Cl)nc1C(F)(F)F` yielded a melting point of 107 to 108 °C.
Work on `CN(C)C1(c2cccc(F)c2)CCC(=CC(=O)NCCc2c[nH]c3ccccc23)CC1` (stereo unspecified) yielded a melting point of 172 to 176 °C.
In the case of `COc1ccc(NC(=O)c2ccc(F)cc2)cc1`, the melting point is reported as 171 to 172 °C.
For `CC1(C)C(=O)Nc2ccccc2NC1=O`, the melting point was over 270 °C.
`OC(CNCC1CCCO1)c1ccccc1` (stereo unspecified) showed a melting point of 70 to 72 °C.
For `COc1cccc(CNC(=O)c2nc3ccc(F)c(OCCc4ccc(NS(N)(=O)=O)cc4)c3c(=O)[nH]2)c1`, the melting point was 204 to 206 °C.
Compound `CS(=O)(=O)c1nnc(C(F)(F)F)s1` has a melting point of 84 °C.
With `CCCC(C)NC(=O)c1ccc(C(=O)Nc2ccccc2NC(=O)OC(C)(C)C)s1` (stereo unspecified) the melting point was 183 °C.
Work on `OCC(O)Cc1c(Cl)cc2c(c1OCc1ccccc1)CCC2` (stereo unspecified) yielded a melting point of 101 to 104 °C.
With `CC(C)c1cccc(-c2ccc(F)cc2)c1O` the melting point was 41 to 43 °C.
For `COc1nsnc(Cl)c1=O`, the melting point was 159 to 161 °C.
For `Cc1ccc(S(=O)(=O)NCCc2ccc(O)cc2)cc1`, the melting point was 169 to 172 °C.
With `CSc1ccc(-c2ccc(C(CCC(=O)O)=NO)cc2)cc1` the melting point was 162 to 164 °C.
`CC(C)C(C(=O)O)c1ccc(OC(F)(F)C(F)F)cc1` (stereo unspecified) gave a melting point of 92 to 97 °C.
`Cc1n[nH]cc1-c1cnc2[nH]c(=O)n(CC3CCOCC3)c2n1` gave a melting point of 222 to 224 °C.
Work on `O=C(NC(=O)c1c(F)cccc1F)Nc1cc(C(F)(F)F)c(F)cc1Cl` yielded a melting point of 192 °C.
Work on `O=C1CCc2cc(-c3cccnc3)ccc21` yielded a melting point of 103 to 106 °C.
`CCC([O-])=C(C(=O)OCc1ccccc1)N1C(=O)CC1[N+](CC)(CC)CC` (stereo unspecified) showed a melting point of 107 °C.
`CN1C=C2C=C(S)N=CN2N1` showed a melting point of over 300 °C.
In the case of `NC(=O)C(Cl)(Cl)CC1(c2cc(Cl)cc(Cl)c2)CO1` (stereo unspecified), the melting point is reported as 130 to 133 °C.
Work on `Cc1ccc2c(c1)C1CNCCC1N2` (stereo unspecified) yielded a melting point of 73 to 75 °C.
`CC(=O)N(CCCCn1ccnc1)C1=Nc2cccc3cccc1c23` showed a melting point of 127 to 130 °C.
`O=C1CCCC(=O)C1=CC=Cc1ccccc1` showed a melting point of 116 to 118 °C.
`O=S1(=O)c2cccc3cccc(c23)N1CCCN1CCN(c2cccc(O)c2)CC1` showed a melting point of 175 °C.
For `CCOC(=O)c1cn(C2CC2)c2nc3cc(F)c(F)cc3cc2c1=O`, the melting point was 230 °C.
`CCCc1nn(C)c2c(=O)[nH]c(-c3sccc3OCC)nc12` showed a melting point of 151 to 152 °C.
For `Cc1oc(-c2ccc3ccccc3c2)nc1COc1ccc(COc2ncccc2CO)cc1`, the melting point was 161 to 162 °C.
`[O-][N+](=Cc1ccc(OCc2ccccc2)cc1)C1CCCC1` showed a melting point of 115 °C.
For `OCCc1c(Br)cc(Br)c2cccnc12`, the melting point was 128 to 131 °C.
`COc1cc(OCc2ccncc2)ccc1/C=C/c1cc(/C=C/c2ccc3[nH]ccc3c2)n[nH]1` gave a melting point of 133 to 141 °C.
`CCOc1cc(Oc2ncc(Cl)cn2)ccc1[N+](=O)[O-]` gave a melting point of 114 to 115 °C.
`COc1ccc(C=C2c3ccccc3C(=NO)c3ccccc32)cc1O` gave a melting point of 140 °C.
With `O=C(c1cc(I)c[nH]1)C(Cl)(Cl)Cl` the melting point was 140 °C.
In the case of `Cc1ccn(-c2ncc(C(=O)N3Cc4cccn4Cc4ccccc43)c(C(F)(F)F)n2)n1`, the melting point is reported as 202 to 204 °C.
In the case of `COC(=O)CCCNC(=O)C(CSC(C)=O)Cc1ccccc1` (stereo unspecified), the melting point is reported as 81 to 82 °C.
For `CC1(C)CCC(=O)Nc2ccc(Nc3ncc(Cl)c(N[C@@H]4CCCC[C@H]4NS(C)(=O)=O)n3)cc21`, the melting point was 170 to 185 °C.
For `CCCCOc1cc(C2(C)CNC(=O)O2)ccc1OC` (stereo unspecified), the melting point was 108 to 109 °C.
In the case of `CN1c2ccc([N+](=O)[O-])cc2C(C)(C)C12C=Nc1cc(-c3ccc(N4CCCC4)cc3)c3ccccc3c1O2` (stereo unspecified), the melting point is reported as 260 to 262 °C.
With `O=CN1CCC(c2nn(-c3ccc(F)cc3)c3ccccc23)CC1` the melting point was 128 to 130 °C.
In the case of `CC(C)(C)NC(=O)[C@@H]1C[C@H](Cl)CN1C(=O)[C@@H](O)[C@H](Cc1ccccc1)NC(=O)[C@H](CC(N)=O)NC(=O)c1cc2cc(F)ccc2[nH]1`, the melting point is reported as 141 to 143 °C.
With `CCCCc1nc2c(N)nc3cc(-c4cccnc4)ccc3c2n1CCNC(=O)NC(C)C` the melting point was 240 to 241 °C.
With `CCCCCCCCCC(=O)N(O)CCCCCC` the melting point was 37 °C.
`CCN1CN(C2CC(O)C(CO)O2)C(=O)NC1=O` (stereo unspecified) showed a melting point of 162 °C.
